{"source": "DBAASP", "experiment_in_all_cases": "≥ marks a high value that may be exact or a test limit, other limits are often not marked, values filed in µg/mL are converted to µM", "key": {"[1]": {"system": "Staphylococcus aureus KCTC 1621"}, "[2]": {"system": "Escherichia coli KCTC 1682"}, "[3]": {"system": "Candida albicans TIMM 1768"}, "[4]": {"system": "Pseudomonas aeruginosa KCTC 1637"}, "[5]": {"system": "Aspergillus fumigatus KCTC 4165"}, "[6]": {"system": "Streptococcus pyogenes KCTC 3096"}, "[7]": {"system": "Salmonella typhimurium KCTC 1926"}, "[8]": {"system": "Bacillus subtilis KCTC 1918"}}}
{"smiles": "CC[C@H](C)[C@H](NC(=O)[C@H](CCCCN)NC(=O)[C@H](CCCCN)NC(=O)[C@H](CC(C)C)NC(=O)[C@H](CCCCN)NC(=O)[C@H](CCCCN)NC(=O)CN)C(=O)NCC(=O)N[C@@H](CCC(N)=O)C(=O)N[C@@H](CCCCN)C(=O)N[C@H](C(=O)N[C@@H](CCCCN)C(=O)N[C@@H](CC(N)=O)C(=O)N[C@@H](Cc1ccccc1)C(=O)N[C@@H](Cc1ccccc1)C(=O)N[C@@H](CCC(N)=O)C(=O)N[C@@H](CCCCN)C(=O)N[C@@H](CC(C)C)C(=O)O)[C@@H](C)CC", "note": "[GKKLKKIGQKIKNFFQKL]", "values": [{"measurement": "MIC", "setting": "[1]", "value": 1.56, "unit": "µM"}, {"measurement": "MIC", "setting": "[2]", "value": 3.12, "unit": "µM"}, {"measurement": "MIC", "setting": "[3]", "value": 6.25, "unit": "µM"}, {"measurement": "MIC", "setting": "[4]", "value": 0.78, "unit": "µM"}, {"measurement": "MIC", "setting": "[5]", "value": 12.5, "unit": "µM"}, {"measurement": "MIC", "setting": "[6]", "value": 3.12, "unit": "µM"}, {"measurement": "MIC", "setting": "[7]", "value": 1.56, "unit": "µM"}, {"measurement": "MIC", "setting": "[8]", "value": 3.12, "unit": "µM"}]}
